Results as given in US20240316140A1 (UBIO INC., priority 2021, published 2024).
Residues, ends and D or L forms follow the SMILES beside them.

Tests used:
[1] = system: HepG2 hepatoma cell line; assay: HepG2 cytotoxicity evaluation of peptide (MTT); type: cell-based, human; settings: tested 0.01 to 1000 ug/ml, 24 hours, non-toxic concentration
Method: After culturing a HepG2 hepatoma cell line, three kinds of synthetic peptides were added by concentration, and MTT (methylthiazol tetrazolium bromide, Sigma Aldrich) was carried out to confirm cell viability. An appropriate amount (1×10^5/well) of cells was seeded on each well in a 24-well plate (BD, Falcon) to treat a sample according to the concentration, and cell viability was confirmed after cultivation for 24 hours in a 37° C. incubator.

[2] = system: HepG2 cells; assay: Hepatocyte protection ability of peptide against t-BHP damage (MTT); type: cell-based, human; settings: 10 mM t-BHP
Method: HepG2 cells, which are hepatoma cell lines, were dispensed in the 24-well plate at 1×10^5/well and cultured. Thereafter, in order to confirm hepatocyte protection ability of three kinds of synthetic peptides, the peptides were treated by concentration, cultured for 23 hours, and then 10 mM of t-BHP was treated for damage to the hepatocytes to culture the same for 90 minutes.

Compound: CC(C)[C@H](N)C(=O)N[C@H](C(=O)N[C@H](C(=O)N[C@@H](CCC(=O)O)C(=O)O)C(C)C)C(C)C [PEP-1, VVVE] (H-VVVE-OH; N-terminus and C-terminus assumed)
- Test Concentration Setting, Cytotoxicity (HepG2) [1]: less than 10 ug/ml
- Hepatocyte Protection Ability ([2]; 10 ug/ml peptide): 7%

Compound: CC(C)C[C@H](NC(=O)CNC(=O)[C@@H](N)CC(=O)O)C(=O)N[C@@H](Cc1c[nH]cn1)C(=O)N[C@@H](CC(C)C)C(=O)N[C@@H](CCCNC(=N)N)C(=O)O [PEP-2, DGLHLR] (H-DGLHLR-OH; N-terminus and C-terminus assumed)
- Test Concentration Setting, Cytotoxicity (HepG2) [1]: less than 10 ug/ml
- Hepatocyte Protection Ability ([2]; 0.1 ug/ml peptide): 15%
- Hepatocyte Protection Ability ([2]; 1 ug/ml peptide): 20%
- Hepatocyte Protection Ability ([2]; 10 ug/ml peptide): 26%

Compound: CC(C)[C@H](NC(=O)[C@H](CO)NC(=O)[C@@H]1CCCN1C(=O)[C@H](CC(N)=O)NC(=O)[C@H](Cc1ccccc1)NC(=O)[C@H](CC(=O)O)NC(=O)[C@@H](N)CC(=O)O)C(=O)N[C@@H](Cc1c[nH]cn1)C(=O)O [PEP-3] (H-DDFNPSVH-OH; N-terminus and C-terminus assumed)
- Test Concentration Setting, Cytotoxicity (HepG2) [1]: less than 10 ug/ml
- Hepatocyte Protection Ability ([2]; 0.1 ug/ml peptide): 9%
- Hepatocyte Protection Ability ([2]; 1 ug/ml peptide): 20%
- Hepatocyte Protection Ability ([2]; 10 ug/ml peptide): 20%
